Results: US20140127231A1, “p38 MAPK Pathway Inhibitors as Female-Specific Therapeutics” (UNIVERSITY OF VERMONT, priority 2012, published 2014)
“Also recorded” adds a separate entry of the source.

What was measured:
TH1-mediated passive EAE = experiment: Passive EAE induced by TH1 cells; type: in vivo, mice; settings: polarized DLN cells transferred into naïve recipients, listed as SB
Description: FIG. 5A is a schematic that illustrates that protocol of inducing passive EAE.
Based on this and the observation that IL-17 is not absolutely required for EAE progression (Haak, S et al., 2009, J Clin Invest 119:61-69), it is possible that SB prevents EAE by inhibiting production of additional key pathogenic factors. Further, it is shown that TH1-mediated passive EAE is prevented by inhibition of p38 MAPK (FIG. 5). In these experiments, donor animals were immunized with MOG35-55, DLN cells were isolated at D10 and cultured under polarizing conditions, and cells were transferred into naïve recipients. […] As such, complementary genomic and proteomic approaches were used to identify these factors, which in the future may provide novel druggable targets for treatment of autoimmune disease. Because such approaches typically yield a large number of potential candidates, a prioritizing/“funneling” scheme was constructed to rule out irrelevant hits in screens. In particular, the sexual dimorphism in response to SB serves as a useful discriminatory tool in this regard.

[1] = tested on: experimental autoimmune encephalomyelitis (EAE); experiment: Active EAE, 2×MOG35-55/CFA protocol, clinical course (Example 3); type: in vivo, C57BL/6J (B6) mice; settings: 5 mg/kg/day i.p. daily from day of immunization; for EAE disease course: 5 mg/kg/day
Procedure: Female (FIG. 15A) and male (FIG. 15B) B6 mice were immunized using the 2×MOG35-55/CFA protocol, followed by daily injections of SB203580 or carrier. Data represent 2 independent experiments, pooled. Data were analyzed as indicated in Materials and Methods. […] For individual time points, * ≦0.05; ** ≦0.01, *** ≦0.001, **** ≦0.0001. Numbers in parentheses indicate the total number of animals studied.
EAE was induced essentially as described previously (Noubade R, et al., J Clin Invest. 2007 November; 117(11):3507-18). Briefly, mice were injected s.c. with an emulsion containing 100 μg of MOG35-55 peptide ([…]; SEQ ID NO: 1) (Anaspec, USA) and complete Freund's adjuvant (CFA) (Sigma-Aldrich, St. Louis, Mo.) supplemented with 200 μg of Mycobacterium tuberculosis H37Ra (Difco Laboratories, Detroit, Mich.) in the posterior right and left flanks. One week later all mice were similarly injected at two sites on the right and left flank anterior of the initial injection sites (2×MOG35-55/CFA). Alternatively, mice were immunized with 200 μg of MOG35-55 in CFA, followed by i.v. administration of 200 ng pertussis toxin (List Biological) (1×MOG35-55/CFA/PTX). In some experiments (as indicated), mice received 5 mg/kg/day of SB203580 dihydrochloride (Tocris, Ellisville, Mo.) by i.p. injection in a total volume of 200 μl or an equal volume of carrier daily starting on the day of immunization. Mice were scored daily starting at day 10 post-injection as previously described (Noubade R, et al., J Clin Invest. 2007 November; 117(11):3507-18). Passive EAE was induced as follows. […]
All statistical analyses were performed using GraphPad Prism 6 software (GraphPad Software Inc, San Diego, Calif.). The significance of differences in cytokine production and flow cytometry data were determined using 2-way ANOVA. The significance of differences observed in clinical course of EAE was determined by 2-way ANOVA and post-hoc analysis using Fisher's LSD test for individual time points (significance indicated by “*” above each time point). […] EAE data from replicate experiments were analyzed by heterogeneity testing. […]

With `C[S+]([O-])c1ccc(-c2nc(-c3ccncc3)c(-c3ccc(F)cc3)[nH]2)cc1` (centres unmarked) [SB203580] the “Cytokine production / inflammatory response” value (TH1-mediated passive EAE) was “decreased cytokine production; also recorded: reduces the inflammatory response”, the EAE severity (TH1-mediated passive EAE) was “reduces EAE severity; also recorded: prevents passive EAE induced by TH1 cells” and the EAE disease course ([1]; female B6 mice) was “robustly ameliorated; also recorded: significant difference in EAE course”. For the same compound, the EAE onset ([1]; male B6 mice) was “accelerated” and the EAE disease course ([1]; male B6 mice) was “showed no therapeutic efficacy; also recorded: augmented; also recorded: did not reduce EAE”.
